# Measured values: US20230399312A1, “SUBSTITUTED PYRIMIDINES AND METHODS OF USE” (THERAVANCE BIOPHARMA R&D IP, LLC, priority 2020, published 2023)
# What was measured:
# [1] = tested on: TGF-β-stimulated SMAD3 phosphorylation in BEAS-2B cells; assay: Cellular ALK5 potency assay, inhibition of TGF-β stimulated pSMAD3 formation in BEAS-2B cells; type: cell-based; settings: Homo sapiens, pSMAD3, TGF-β 10 ng/mL, read-out: BEAS2B pIC50 (converted)
# In short: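 BEAS-2B cells, HBSS/25 mM HEPES/1% BSA buffer; cpd 1 h, 37 °C; TGF-β 10 ng/mL final, 30 min; lysis, AlphaLISA pSMAD3 read next day. pIC50 vs stimulated no-compound baseline.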
# [2] = target: T1, recombinant human ALK5 (TGF-βR1) protein (Homo sapiens, UniProt P36897); assay: Biochemical ALK5 (TGF-βR1) assay to measure pKi (LANCE Ultra ULight kinase assay); settings: apparent pKi, converted from pIC50 by Cheng-Prusoff
# T1 construct: purchased Life Technologies PR9075A
# T1 sequence (P36897 34-503): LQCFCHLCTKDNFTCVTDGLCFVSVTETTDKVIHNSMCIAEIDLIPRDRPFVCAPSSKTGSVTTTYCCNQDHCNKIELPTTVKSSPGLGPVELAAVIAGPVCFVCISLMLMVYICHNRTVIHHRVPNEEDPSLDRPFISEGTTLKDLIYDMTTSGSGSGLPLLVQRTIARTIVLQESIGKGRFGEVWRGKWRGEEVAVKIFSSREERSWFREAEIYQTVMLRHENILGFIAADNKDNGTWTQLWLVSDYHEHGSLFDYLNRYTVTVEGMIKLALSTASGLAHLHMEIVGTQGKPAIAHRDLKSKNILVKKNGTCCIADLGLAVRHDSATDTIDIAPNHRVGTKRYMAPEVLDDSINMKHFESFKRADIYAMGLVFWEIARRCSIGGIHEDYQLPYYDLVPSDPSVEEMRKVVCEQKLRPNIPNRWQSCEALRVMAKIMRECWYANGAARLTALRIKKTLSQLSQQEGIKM
# In short: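 Cmpd + enzyme, 60 min RT; ATP from 125 μM (5×) stock, 60 min 37 °C; stop 12 mM EDTA/Eu anti-pThr1342 Topo2α Ab (pH 7.0 buffer); TR-FRET 665 nm. DMSO = max, SD-208 = min signal. 4-PL pIC50 → pKi (Cheng-Prusoff).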
Compound,IC50 [1] [nM],Ki [2] [nM]
"Cc1cccc(-c2nccc(Nc3ccnc(Nc4ccc(N(C)C(=O)C5CCNCC5)cc4)n3)n2)n1 [Compound 416, N-methyl-N-[4-[[4-[[2-(6-methyl-2-pyridyl)pyrimidin-4-yl]amino]pyrimidin-2-yl]amino]phenyl]piperidine-4-carboxamide]",200 to 1260,0.0398 to 0.316
"Cc1cccc(-c2nccc(Nc3ccnc(Nc4ccc(CN5CCS(=O)(=O)CC5)cc4)n3)n2)n1 [Compound 417, N2-[4-[(1,1-dioxo-1,4-thiazinan-4-yl)methyl]phenyl]-N4-[2-(6-methyl-2-pyridyl)pyrimidin-4-yl]pyrimidine-2,4-diamine]",25.1 to 158,0.0398 to 0.316
"Cc1cccc(-c2nccc(Nc3ccnc(Nc4ccc(N5CCNCC5)cc4)n3)n2)n1 [Compound 418, N4-(2-(6-methylpyridin-2-yl)pyrimidin-4-yl)-N2-(4-(piperazin-1-yl)phenyl)pyrimidine-2,4-diamine]",25.1 to 158,0.0398 to 0.316
"Cc1cccc(-c2nccc(Nc3ccnc(Nc4cc(NC(=O)C5CCNCC5)c5c(c4)OCCO5)n3)n2)n1 [Compound 419, N-[7-[[4-[[2-(6-methyl-2-pyridyl)pyrimidin-4-yl]amino]pyrimidin-2-yl]amino]-2,3-dihydro-1,4-benzodioxin-5-yl]piperidine-4-carboxamide]",25.1 to 158,0.0398 to 0.316
"Cc1cccc(-c2nccc(Nc3ccnc(Nc4cccc(S(=O)(=O)NCCN(C)C)c4)n3)n2)n1 [Compound 420, N-[2-(dimethylamino)ethyl]-3-[[4-[[2-(6-methyl-2-pyridyl)pyrimidin-4-yl]amino]pyrimidin-2-yl]amino]benzenesulfonamide]",25.1 to 158,0.0398 to 0.316
"Cc1cccc(-c2nccc(Nc3ccnc(Nc4ccc(C)c(N)c4)n3)n2)n1 [Compound 421, N2-(3-amino-4-methyl-phenyl)-N4-[2-(6-methyl-2-pyridyl)pyrimidin-4-yl]pyrimidine-2,4-diamine]",≤ 20,0.0398 to 0.316
"Cc1cccc(-c2nccc(Nc3ccnc(Nc4ccc(N5CCN[C@@H](C(=O)O)C5)cc4)n3)n2)n1 [Compound 422, (2R)-4-[4-[[4-[[2-(6-methyl-2-pyridyl)pyrimidin-4-yl]amino]pyrimidin-2-yl]amino]phenyl]piperazine-2-carboxylic acid]",200 to 1260,0.0398 to 0.316
"Cc1cccc(-c2nccc(Nc3ccnc(Nc4cccc(C(=O)O)c4)n3)n2)n1 [Compound 423, 3-[[4-[[2-(6-methyl-2-pyridyl)pyrimidin-4-yl]amino]pyrimidin-2-yl]amino]benzoic acid]",1580 to 10000,0.398 to 3.16
"Cc1cccc(-c2nccc(Nc3ccnc(Nc4cccc(CN5C6CCC5CNC6)c4)n3)n2)n1 [Compound 424, N2-[3-(3,8-diazabicyclo[3.2.1]octan-8-ylmethyl)phenyl]-N4-[2-(6-methyl-2-pyridyl)pyrimidin-4-yl]pyrimidine-2,4-diamine]",25.1 to 158,0.0398 to 0.316
"Cc1cccc(-c2nccc(Nc3ccnc(Nc4ccc(-c5cnn(C(C)C)c5)cc4)n3)n2)n1 [Compound 425, N2-[4-(1-isopropylpyrazol-4-yl)phenyl]-N4-[2-(6-methyl-2-pyridyl)pyrimidin-4-yl]pyrimidine-2,4-diamine]",25.1 to 158,0.398 to 3.16
"Fc1ccc(-c2nccc(Nc3ccnc(Nc4ccc(N5CCOCC5)cc4)n3)n2)nc1C(F)F [Compound 426, N4-(2-(6-(difluoromethyl)-5-fluoropyridin-2-yl)pyrimidin-4-yl)-N2-(4-morpholinophenyl)pyrimidine-2,4-diamine]",25.1 to 158,3.98 to 31.6
"CNCCNS(=O)(=O)c1ccc(Nc2nccc(Nc3ccnc(-c4cccc(C)n4)n3)n2)cc1 [Compound 427, N-[2-(methylamino)ethyl]-4-[[4-[[2-(6-methyl-2-pyridyl)pyrimidin-4-yl]amino]pyrimidin-2-yl]amino]benzenesulfonamide]",25.1 to 158,0.0398 to 0.316
"Cc1cccc(-c2nccc(Nc3ccnc(Nc4ccc(CN5CCC[C@@H](C(=O)O)C5)cc4)n3)n2)n1 [Compound 428, (3R)-1-[[4-[[4-[[2-(6-methyl-2-pyridyl)pyrimidin-4-yl]amino]pyrimidin-2-yl]amino]phenyl]methyl] piperidine-3-carboxylic acid]",200 to 1260,0.0398 to 0.316
"Cc1cccc(-c2nccc(Nc3ccnc(Nc4ccc(N5CCN(C6CCNC6)CC5)cc4)n3)n2)n1 (stereo not shown) [Compound 429, N4-[2-(6-methyl-2-pyridyl)pyrimidin-4-yl]-N2-[4-(4-pyrrolidin-3-ylpiperazin-1-yl)phenyl]pyrimidine-2,4-diamine]",200 to 1260,0.0398 to 0.316
"Cc1cccc(-c2nccc(Nc3ccnc(Nc4cccc(S(=O)(=O)NCCN)c4)n3)n2)n1 [Compound 430, N-(2-aminoethyl)-3-[[4-[[2-(6-methyl-2-pyridyl)pyrimidin-4-yl]amino]pyrimidin-2-yl]amino]benzenesulfonamide]",25.1 to 158,0.0398 to 0.316
"COc1ccc(Nc2nccc(Nc3ccnc(-c4cccc(C)n4)n3)n2)cc1CN1C[C@@H](C)N[C@@H](C)C1 [Compound 431, N2-[4-methoxy-3-[[rac-(3R,5S)-3,5-dimethylpiperazin-1-yl]methyl]phenyl]-N4-[2-(6-methyl-2-pyridyl)pyrimidin-4-yl]pyrimidine-2,4-diamine]",25.1 to 158,0.0398 to 0.316
"Cc1cccc(-c2nccc(Nc3ccnc(Nc4ccc(N5CCC(N(C)Cc6ccccc6)CC5)cc4)n3)n2)n1 [Compound 432, N2-[4-[4-[benzyl(methyl)amino]-1-piperidyl]phenyl]-N4-[2-(6-methyl-2-pyridyl)pyrimidin-4-yl]pyrimidine-2,4-diamine]",25.1 to 158,0.0398 to 0.316
"Cc1cccc(-c2nccc(Nc3ccnc(Nc4ccc(N5CCCC(C(=O)OCC6CNC6)C5)cc4)n3)n2)n1 (stereo not shown) [Compound 433, azetidin-3-ylmethyl 1-[4-[[4-[[2-(6-methyl-2-pyridyl)pyrimidin-4-yl]amino]pyrimidin-2-yl]amino]phenyl]piperidine-3-carboxylate]",25.1 to 158,0.0398 to 0.316
"Cc1cccc(-c2nccc(Nc3ccnc(Nc4ccc(C(=O)N5CCN(C)CC5)cc4)n3)n2)n1 [Compound 434, (4-methylpiperazin-1-yl)-[4-[[4-[[2-(6-methyl-2-pyridyl)pyrimidin-4-yl]amino]pyrimidin-2-yl]amino]phenyl]methanone]",25.1 to 158,0.0398 to 0.316
"Cc1cccc(-c2nccc(Nc3ccnc(Nc4ccc(NC(=O)N5C[C@@H](C)N[C@@H](C)C5)cc4)n3)n2)n1 [Compound 435, rac-(3S,5R)-3,5-dimethyl-N-[4-[[4-[[2-(6-methyl-2-pyridyl)pyrimidin-4-yl]amino]pyrimidin-2-yl]amino]phenyl]piperazine-1-carboxamide]",25.1 to 158,0.0398 to 0.316
"CN1CCN(C2CCN(c3ccc(Nc4nccc(Nc5ccnc(-c6cc(Cl)ccc6F)n5)n4)cc3)CC2)CC1 [Compound 436, N4-[2-(5-chloro-2-fluoro-phenyl)pyrimidin-4-yl]-N2-[4-[4-(4-methylpiperazin-1-yl)-1-piperidyl]phenyl]pyrimidine-2,4-diamine]",25.1 to 158,0.0398 to 0.316
"COC(=O)c1cnc(-c2cccc(C)n2)nc1Nc1ccnc(Nc2ccc(N)cc2)n1 [Compound 437, methyl 4-[[2-(4-aminoanilino)pyrimidin-4-yl]amino]-2-(6-methyl-2-pyridyl)pyrimidine-5-carboxylate]",25.1 to 158,0.398 to 3.16
"Cc1cccc(-c2nccc(Nc3ccnc(Nc4ccc(CN5CC(C)(N)C5)cc4)n3)n2)n1 [Compound 438, N2-[4-[(3-amino-3-methyl-azetidin-1-yl)methyl]phenyl]-N4-[2-(6-methyl-2-pyridyl)pyrimidin-4-yl]pyrimidine-2,4-diamine]",25.1 to 158,0.0398 to 0.316
"Cc1cccc(-c2nccc(Nc3ccnc(Nc4ccc(C(=O)O)s4)n3)n2)n1 [Compound 439, 5-[[4-[[2-(6-methyl-2-pyridyl)pyrimidin-4-yl]amino]pyrimidin-2-yl]amino]thiophene-2-carboxylic acid]",200 to 1260,0.398 to 3.16
"Cc1cccc(-c2nccc(Nc3ccnc(Nc4ccc(-c5cnn(CCN)c5)cc4)n3)n2)n1 [Compound 440, N2-[4-[1-(2-aminoethyl)pyrazol-4-yl]phenyl]-N4-[2-(6-methyl-2-pyridyl)pyrimidin-4-yl]pyrimidine-2,4-diamine]",25.1 to 158,0.0398 to 0.316
"Cc1cccc(-c2nccc(Nc3ccnc(Nc4ccc(NS(=O)(=O)N(C)C5CCNCC5)cc4)n3)n2)n1 [Compound 441, 4-[[2-[4-[[methyl(4-piperidyl)sulfamoyl]amino]anilino]pyrimidin-4-yl]amino]-2-(6-methyl-2-pyridyl)pyrimidine]",25.1 to 158,0.0398 to 0.316
